Experiments:
Assay type in all cases: cell-based
[1] = target: T1, feruloyl CoA synthase (FCS, Atfcs) (Amycolatopsis thermoflava, UniProt Z9FW54HPU9); assay: whole-cell aldehyde formation; settings: E. coli RARE cells co-expressing ECH hydratase/aldolase, which completes the conversion to aldehyde; MMV medium, 5 mM, 24 °C
T1 construct: pETDuet-1, co-expressed with enoyl-CoA hydratase/aldolase Atech of the same strain in E. coli K-12 MG1655 (RARE)

[2] = target: carboxylic acid reductase (CAR) (Nocardia iowensis, UniProt Q6RKB1); assay: whole-cell aldehyde formation; settings: E. coli RARE cells co-expressing SFP; MMV medium, 5 mM, 24 °C
[3] = target: T2, 5-Hydroxymethylfurfural (HMF) oxidase (HMFO) (Methylovorus sp. MP688, UniProt E4QP00); assay: whole-cell alcohol oxidation; settings: O2 as oxidant; E. coli RARE cells, 5 mM, 2 h
T2 construct: gene MPQ_0130; flavoprotein, pBAD vector, expressed in E. coli K-12 MG1655 (RARE); no mutations told
T2 sequence (E4QP00 1-531): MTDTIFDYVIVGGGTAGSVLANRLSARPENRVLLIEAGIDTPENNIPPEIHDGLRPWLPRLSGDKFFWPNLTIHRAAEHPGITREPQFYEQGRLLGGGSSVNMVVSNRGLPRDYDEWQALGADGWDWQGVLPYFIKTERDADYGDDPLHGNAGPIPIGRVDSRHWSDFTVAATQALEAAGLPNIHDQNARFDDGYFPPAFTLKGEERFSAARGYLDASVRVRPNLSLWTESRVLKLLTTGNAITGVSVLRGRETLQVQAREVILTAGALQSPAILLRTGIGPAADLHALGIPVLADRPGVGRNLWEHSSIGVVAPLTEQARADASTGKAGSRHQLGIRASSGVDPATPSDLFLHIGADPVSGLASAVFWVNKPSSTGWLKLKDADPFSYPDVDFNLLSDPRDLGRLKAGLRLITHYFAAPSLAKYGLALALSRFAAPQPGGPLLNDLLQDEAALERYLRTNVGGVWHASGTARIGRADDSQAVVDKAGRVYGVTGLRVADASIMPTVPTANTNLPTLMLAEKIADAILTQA

carboxylic acid reductase (CAR), sequence (Q6RKB1 2-1174): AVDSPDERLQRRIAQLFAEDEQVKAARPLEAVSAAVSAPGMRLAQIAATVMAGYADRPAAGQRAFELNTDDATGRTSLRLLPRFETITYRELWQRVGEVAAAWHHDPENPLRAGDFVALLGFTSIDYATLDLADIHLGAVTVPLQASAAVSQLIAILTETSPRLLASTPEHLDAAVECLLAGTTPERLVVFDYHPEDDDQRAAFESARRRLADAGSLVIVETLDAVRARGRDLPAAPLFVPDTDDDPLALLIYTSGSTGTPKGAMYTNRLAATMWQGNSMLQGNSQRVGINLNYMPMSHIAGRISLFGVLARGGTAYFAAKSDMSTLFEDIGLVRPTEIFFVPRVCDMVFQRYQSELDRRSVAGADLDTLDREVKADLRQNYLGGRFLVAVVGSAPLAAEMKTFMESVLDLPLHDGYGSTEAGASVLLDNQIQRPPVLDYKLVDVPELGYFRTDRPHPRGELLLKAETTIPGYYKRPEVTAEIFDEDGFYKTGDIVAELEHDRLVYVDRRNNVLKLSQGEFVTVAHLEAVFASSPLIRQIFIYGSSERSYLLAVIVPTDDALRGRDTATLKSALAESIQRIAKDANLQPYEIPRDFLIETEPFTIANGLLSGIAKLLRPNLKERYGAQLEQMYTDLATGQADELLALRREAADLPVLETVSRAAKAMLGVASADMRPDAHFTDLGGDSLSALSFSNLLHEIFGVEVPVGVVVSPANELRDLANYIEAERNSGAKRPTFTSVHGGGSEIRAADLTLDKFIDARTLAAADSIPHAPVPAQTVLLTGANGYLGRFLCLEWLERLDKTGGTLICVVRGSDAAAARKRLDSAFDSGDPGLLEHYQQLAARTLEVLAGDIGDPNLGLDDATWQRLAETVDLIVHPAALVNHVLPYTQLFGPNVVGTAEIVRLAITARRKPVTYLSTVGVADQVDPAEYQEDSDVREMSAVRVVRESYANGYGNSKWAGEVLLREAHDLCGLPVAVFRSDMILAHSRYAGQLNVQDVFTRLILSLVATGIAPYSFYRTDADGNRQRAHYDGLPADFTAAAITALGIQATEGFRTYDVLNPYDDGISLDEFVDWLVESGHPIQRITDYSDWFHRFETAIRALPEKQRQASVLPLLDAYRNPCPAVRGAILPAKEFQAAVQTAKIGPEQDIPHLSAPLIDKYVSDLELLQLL

Row | Structure (SMILES) | whole-cell aldehyde formation [2] | whole-cell alcohol oxidation [3] | also measured
1 | O=C(O)/C=C/c1ccc(O)cc1 [compound 5, p-coumaric acid] |  |  | whole-cell aldehyde formation [1]: FCS‐ECH/E. coli RARE, starting from p‐coumaric acid
2 | O=C(O)c1ccc(O)cc1 [4 a, p-hydroxybenzoic acid] | CAR‐SFP/E. coli RARE, from p‐hydroxybenzoic acid, produced a good yield of p‐hydroxybenzaldehyde |  | 
3 | OCc1ccc(O)cc1 [6 a, p-hydroxybenzyl alcohol] |  | whole cell HMFO catalysed oxidation of benzyl alcohol and p‐hydroxybenzyl alcohol | 
4 | OCc1ccccc1 [6 b, benzyl alcohol] |  | whole cell HMFO catalysed oxidation of benzyl alcohol and p‐hydroxybenzyl alcohol | 
5 | O=C(O)c1ccccc1 [4 b, benzoic acid] | reduction of benzoic acid to benzaldehyde catalysed by CAR‐SFP/E. coli RARE |  | 

Reference: publication PMC10100225, “In Vivo Biocatalytic Cascades Featuring an Artificial‐Enzyme‐Catalysed New‐to‐Nature Reaction” (Angewandte Chemie (International Ed. in English), 2022)
